Results from ChEMBL document CHEMBL1201862, “PubChem BioAssay data set” (2004).
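Dose response: 5 concentrations. Exposure: 48 h. Format: 96-well plates. Endpoint: linear interpolation; highest concentration if not reached. The concentration for 50% growth inhibition is given as GI50.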 Calls of active or inactive are those of the source. No stated cut-off is given here; in the data, active = GI50 up to about 1.1 µM and inactive = higher.

Experiments:
Assay in all cases: NCI anticancer screen, dose series, 48 h
SF-539 = test system: SF-539
A549 = test system: A549
A498 = test system: A498
T47D = test system: T47D
DU-145 = test system: DU-145
SK-MEL-5 = test system: SK-MEL-5
SK-MEL-2 = test system: SK-MEL-2
MDA-MB-231 = test system: MDA-MB-231
UACC-62 = test system: UACC-62
SN12C = test system: SN12C
Hs-578T = test system: Hs-578T
EKVX = test system: EKVX
MOLT-4 = test system: MOLT-4
HOP-62 = test system: HOP-62
SK-OV-3 = test system: SK-OV-3
NCI-H522 = test system: NCI-H522
PC-3 = test system: PC-3
HOP-92 = test system: HOP-92
NCI/ADR-RES = test system: NCI/ADR-RES
RPMI-8226 = test system: RPMI-8226

Row | Structure (SMILES) | GI50 (SF-539) | GI50 (A549) | GI50 (A498) | GI50 (T47D) | GI50 (DU-145) | GI50 (SK-MEL-5) | GI50 (SK-MEL-2) | GI50 (MDA-MB-231) | GI50 (UACC-62) | GI50 (SN12C) | GI50 (Hs-578T) | GI50 (EKVX) | GI50 (MOLT-4) | GI50 (HOP-62) | GI50 (SK-OV-3) | GI50 (NCI-H522) | GI50 (PC-3) | GI50 (HOP-92) | GI50 (NCI/ADR-RES) | GI50 (RPMI-8226)
1 | Cc1[nH]n(-c2ccccc2)c(=O)c1C(N(CCc1ccccc1)C1=NCC(C)S1)(C(F)(F)F)C(F)(F)F (stereo unspecified) | 16.7 µM (inactive) | 15.1 µM (inactive) | 11.9 µM (inactive) | 5.19 µM (inactive) | 27.2 µM (inactive) | 7.71 µM (inactive) | 8.51 µM (inactive) | 18.8 µM (inactive) | 8.71 µM (inactive) | 17.8 µM (inactive) | 20.5 µM (inactive) | 11.3 µM (inactive) | 20.5 µM (inactive) | 24.3 µM (inactive) | 25.4 µM (inactive) | 4.35 µM (inactive) | 16.1 µM (inactive) | 0.352 µM (active) | 18.9 µM (inactive) | –
2 | O=C1NC(NCc2ccc(F)cc2)=N/C1=C\c1ccccc1Cl | 32.1 µM (inactive) | 17.2 µM (inactive) | 16.8 µM (inactive) | 5.41 µM (inactive) | 19.9 µM (inactive) | 13.4 µM (inactive) | 15.8 µM (inactive) | 17.8 µM (inactive) | 15.7 µM (inactive) | 14.8 µM (inactive) | 30.5 µM (inactive) | 19.8 µM (inactive) | 12.9 µM (inactive) | 19.1 µM (inactive) | 26.3 µM (inactive) | 13.8 µM (inactive) | 15.9 µM (inactive) | 6.97 µM (inactive) | 20.1 µM (inactive) | –
3 | CS(=O)(=O)Nc1ccc2ccccc2c1 | > 100 µM (inactive) | > 100 µM (inactive) | > 100 µM (inactive) | > 100 µM (inactive) | > 100 µM (inactive) | > 100 µM (inactive) | > 100 µM (inactive) | > 100 µM (inactive) | > 100 µM (inactive) | > 100 µM (inactive) | > 100 µM (inactive) | 57.3 µM (inactive) | > 100 µM (inactive) | 95.7 µM (inactive) | > 100 µM (inactive) | > 100 µM (inactive) | > 100 µM (inactive) | 87.7 µM (inactive) | > 100 µM (inactive) | > 100 µM (inactive)
4 | O=c1c2ccccc2c2ccccc2c(=O)n1Cc1ccc2c(c1)OCO2 | 27.1 µM (inactive) | 32.1 µM (inactive) | > 70.5 µM (inactive) | 39.9 µM (inactive) | 49.9 µM (inactive) | 20.3 µM (inactive) | 39.7 µM (inactive) | > 96.2 µM (inactive) | 21.6 µM (inactive) | 37.5 µM (inactive) | 37.9 µM (inactive) | 36.1 µM (inactive) | 12.9 µM (inactive) | 62.1 µM (inactive) | 41.4 µM (inactive) | 30.8 µM (inactive) | 42.8 µM (inactive) | > 94.8 µM (inactive) | 24.9 µM (inactive) | 15.9 µM (inactive)
5 | CCC(C#N)NCc1ccc(CNC(C#N)CC)cc1 (stereo unspecified) | > 100 µM (inactive) | > 100 µM (inactive) | > 100 µM (inactive) | > 100 µM (inactive) | > 100 µM (inactive) | > 100 µM (inactive) | > 100 µM (inactive) | > 100 µM (inactive) | 86.5 µM (inactive) | > 100 µM (inactive) | > 100 µM (inactive) | > 100 µM (inactive) | > 100 µM (inactive) | – | > 100 µM (inactive) | > 100 µM (inactive) | > 100 µM (inactive) | > 100 µM (inactive) | > 100 µM (inactive) | –
6 | COc1cc2oc(-c3ccc4c(c3)OCO4)c(OC)c(=O)c2c(O)c1OC | > 50 µM (inactive) | > 50 µM (inactive) | > 50 µM (inactive) | > 50 µM (inactive) | > 50 µM (inactive) | > 50 µM (inactive) | > 50 µM (inactive) | 45.4 µM (inactive) | > 50 µM (inactive) | > 50 µM (inactive) | > 50 µM (inactive) | > 50 µM (inactive) | > 50 µM (inactive) | 15.7 µM (inactive) | > 50 µM (inactive) | > 50 µM (inactive) | > 50 µM (inactive) | 22.8 µM (inactive) | > 50 µM (inactive) | –
7 | O=c1[nH]/c(=C/c2ccc(OCc3ccccc3)cn2)c(=O)[nH]/c1=C/c1cccnc1 | 0.401 µM (active) | 0.804 µM (active) | 0.209 µM (active) | 0.458 µM (active) | 0.585 µM (active) | 0.226 µM (active) | 0.38 µM (active) | 1.92 µM (inactive) | 0.192 µM (active) | 0.417 µM (active) | 0.526 µM (active) | 1.65 µM (inactive) | 0.361 µM (active) | 0.497 µM (active) | 0.703 µM (active) | 0.182 µM (active) | 0.423 µM (active) | > 35.2 µM (inactive) | 0.345 µM (active) | 0.628 µM (active)
8 | Cc1cc2nc(-c3c(F)cccc3F)n(Cc3c(F)cccc3F)c2cc1C | 18.5 µM (inactive) | 12.1 µM (inactive) | 20.1 µM (inactive) | 14.8 µM (inactive) | 23.6 µM (inactive) | 13.6 µM (inactive) | 15.8 µM (inactive) | 14 µM (inactive) | – | 16.4 µM (inactive) | 19.2 µM (inactive) | 8.24 µM (inactive) | 13.1 µM (inactive) | 14.4 µM (inactive) | 16.9 µM (inactive) | 12.7 µM (inactive) | 15.7 µM (inactive) | 12.7 µM (inactive) | 18.5 µM (inactive) | 5.28 µM (inactive)
9 | COC(=O)Nc1nc2cc(S(=O)(=O)Nc3ccccn3)ccc2[nH]1 | 22.7 µM (inactive) | 80.7 µM (inactive) | 61.1 µM (inactive) | 44.2 µM (inactive) | 71.1 µM (inactive) | 42.1 µM (inactive) | > 100 µM (inactive) | > 100 µM (inactive) | 42.6 µM (inactive) | 92 µM (inactive) | 35.6 µM (inactive) | > 100 µM (inactive) | 25.5 µM (inactive) | 73.3 µM (inactive) | 44.5 µM (inactive) | 45.2 µM (inactive) | 65.8 µM (inactive) | 30.5 µM (inactive) | 34.1 µM (inactive) | 14 µM (inactive)
10 | N#Cc1cc([N+](=O)[O-])ccc1NC(=O)/C(=N\NC(=O)c1ccncc1)C(c1cnc2ccc([N+](=O)[O-])cc2n1)[N+](=O)[O-] (stereo unspecified) | 2.07 µM (inactive) | 3.64 µM (inactive) | 8.49 µM (inactive) | 3.37 µM (inactive) | 5.64 µM (inactive) | 0.869 µM (active) | 1.75 µM (inactive) | 1.99 µM (inactive) | 1.52 µM (inactive) | 1.85 µM (inactive) | 2.26 µM (inactive) | 9.31 µM (inactive) | 7.23 µM (inactive) | 2.81 µM (inactive) | 8.02 µM (inactive) | 1.8 µM (inactive) | 3.33 µM (inactive) | 9.18 µM (inactive) | 6.41 µM (inactive) | 5.89 µM (inactive)
11 | COc1cc2nc(Cl)nc(NS(=O)(=O)c3cc4ccccc4s3)c2cc1OC | 37.2 µM (inactive) | 32 µM (inactive) | 16.4 µM (inactive) | 19.7 µM (inactive) | 21.3 µM (inactive) | 19.1 µM (inactive) | 24.5 µM (inactive) | 24.9 µM (inactive) | 16.9 µM (inactive) | 29.6 µM (inactive) | 40.6 µM (inactive) | 25 µM (inactive) | – | 31.5 µM (inactive) | 28.1 µM (inactive) | 31.3 µM (inactive) | 26.1 µM (inactive) | 18 µM (inactive) | 39.8 µM (inactive) | 18.4 µM (inactive)
12 | C=C1C(=O)OC2C1CC(O)/C(C)=C\CCC1(C)OC21 (stereo unspecified) | 34.2 µM (inactive) | 35.5 µM (inactive) | 43 µM (inactive) | 46.1 µM (inactive) | 32.8 µM (inactive) | 21 µM (inactive) | 17.5 µM (inactive) | 15.5 µM (inactive) | 21.2 µM (inactive) | – | 23.5 µM (inactive) | 36.7 µM (inactive) | 7.35 µM (inactive) | 20 µM (inactive) | 49.9 µM (inactive) | 14.8 µM (inactive) | 23.2 µM (inactive) | 34.6 µM (inactive) | 22.7 µM (inactive) | 21.4 µM (inactive)
13 | O=C(OCc1ccccc1)N1CCNCCNCCN(C(=O)OCc2ccccc2)CCNCC1 | 18.5 µM (inactive) | 63.4 µM (inactive) | 20.8 µM (inactive) | 17.1 µM (inactive) | > 100 µM (inactive) | 14.1 µM (inactive) | 17.5 µM (inactive) | 16.1 µM (inactive) | 17.7 µM (inactive) | 47.4 µM (inactive) | 19.1 µM (inactive) | 24 µM (inactive) | 16.7 µM (inactive) | 36.7 µM (inactive) | > 100 µM (inactive) | 15.7 µM (inactive) | 41.6 µM (inactive) | 20.6 µM (inactive) | 50.5 µM (inactive) | 19.5 µM (inactive)
14 | O=c1cc(-c2ccccc2F)[nH]c2cc3c(cc12)OCO3 | 0.0702 µM (active) | 0.204 µM (active) | 0.0724 µM (active) | > 100 µM (inactive) | 0.0399 µM (active) | 0.0211 µM (active) | 0.1 µM (active) | 0.29 µM (active) | 0.042 µM (active) | 0.281 µM (active) | 0.0728 µM (active) | – | 0.245 µM (active) | 0.19 µM (active) | 0.201 µM (active) | 0.0402 µM (active) | 0.0495 µM (active) | 0.212 µM (active) | 0.035 µM (active) | 0.0631 µM (active)
